Some test systems named below: OVCAR-3; 786-0; MDA-MB-435; SF-539; UO-31; M14; OVCAR-4; RPMI-8226; HOP-62; IGROV-1; NCI/ADR-RES; SF-268; HCC 2998; MDA-MB-231; PC-3; OVCAR-5; EKVX; NCI-H460; SNB-19; SNB-75.
Experiment in all cases: DTP human tumour cell line panel, 48 h

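All cell lines were grown in 96-well plates and treated with compound for 48 hours. GI50: concentration for 50% inhibition of growth.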 Active and inactive are the calls of the source. Rule as the data show it: active = GI50 up to about 1.1 µM and inactive = higher.

Data on eleven molecules can be found in ChEMBL document CHEMBL1201862, “PubChem BioAssay data set” (2004).

Take `CO/C=C(/C(=O)OC)[C@@H]1C[C@@H]1c1ccc2ccccc2c1`: the GI50 was 24.6 µM (inactive) in the assay on OVCAR-3; 33.5 µM (inactive) with 786-0; 14.7 µM (inactive) in the assay on MDA-MB-435; 19.5 µM (inactive) in the assay on SF-539; 30.3 µM (inactive) in the assay on UO-31; 22.8 µM (inactive) in the assay with M14. For the same molecule, the GI50 was 16.9 µM (inactive) in the assay on OVCAR-4; 20.3 µM (inactive) in the assay on RPMI-8226; 45.4 µM (inactive) in the assay with HOP-62; 20.5 µM (inactive) with IGROV-1; 26.4 µM (inactive) in the assay on NCI/ADR-RES; 24.9 µM (inactive) in the assay on SF-268. The GI50 was 20.4 µM (inactive) in the assay on HCC 2998; 26.3 µM (inactive) in the assay on MDA-MB-231; 27.7 µM (inactive) with PC-3; 97.5 µM (inactive) with OVCAR-5; 19.2 µM (inactive) in the assay on EKVX; 27.2 µM (inactive) in the assay on NCI-H460. The GI50 with SNB-19 is 56.5 µM (inactive).

Turning to `C/C(=C1\C(=O)C(c2ccccc2)N(c2ccccc2)C1=O)c1ccc(Cl)cc1` (centres undefined), the GI50 with OVCAR-3 was 15.6 µM (inactive); with 786-0, 18.3 µM (inactive); with MDA-MB-435, 17.4 µM (inactive); in the assay on SF-539, 21.3 µM (inactive); in the assay with UO-31 it was 19.8 µM (inactive); in the assay with M14, 19.8 µM (inactive). The GI50 is 21.5 µM (inactive) in the assay with OVCAR-4; 15.4 µM (inactive) with RPMI-8226; 23.1 µM (inactive) in the assay on HOP-62; 18.7 µM (inactive) with IGROV-1; 29.1 µM (inactive) with NCI/ADR-RES; 18.7 µM (inactive) in the assay on SF-268. The GI50 in the assay with HCC 2998 was 36.6 µM (inactive); in the assay on MDA-MB-231 it was 22.3 µM (inactive); in the assay on PC-3 it was 14.3 µM (inactive); in the assay on EKVX, 30.8 µM (inactive); with NCI-H460, 29.6 µM (inactive); with SNB-19, 17.4 µM (inactive).

Turning to `CC(C)C1=CC23CCC4C(C)(C(=O)O)CCCC4(C)C2CC1C1C(=O)N(CCCCCCN2C(=O)C4C5CC6C7(C)CCCC(C)(C(=O)O)C7CCC6(C=C5C(C)C)C4C2=O)C(=O)C13` (centres undefined), the GI50 with OVCAR-3 is 13.9 µM (inactive); in the assay with 786-0 it was > 10 µM (inactive); with MDA-MB-435, 4.54 µM (inactive); with SF-539 it was > 10 µM (inactive); with UO-31, > 10 µM (inactive); with M14, 11 µM (inactive). Besides, the GI50 in the assay with OVCAR-4 was 15.7 µM (inactive); in the assay on RPMI-8226, 13.7 µM (inactive); in the assay on HOP-62 it was > 10 µM (inactive); in the assay on SF-268, 13.4 µM (inactive); in the assay with HCC 2998, 12.7 µM (inactive); with MDA-MB-231, 15.3 µM (inactive). In addition, the GI50 in the assay with PC-3 was 5.9 µM (inactive); with OVCAR-5, 22.4 µM (inactive); in the assay on EKVX, 7.4 µM (inactive); in the assay on SNB-19 it was 10.5 µM (inactive).

As for `CC1C(c2ccc(N(C)C)cc2)c2cc3c(cc2OC1N1CCCC1)OCO3` (centres undefined), the GI50 with OVCAR-3 is 43.5 µM (inactive); with 786-0, 43 µM (inactive); with MDA-MB-435 it was 16.6 µM (inactive); in the assay on SF-539, 21.7 µM (inactive); in the assay on UO-31, 30.8 µM (inactive); in the assay with M14, 31.9 µM (inactive). Further, the GI50 with OVCAR-4 was > 100 µM (inactive); with RPMI-8226 it was 36.1 µM (inactive); in the assay on HOP-62, 25.2 µM (inactive); with IGROV-1, > 65.8 µM (inactive); in the assay with NCI/ADR-RES it was 33.6 µM (inactive); with SF-268, 66.8 µM (inactive). The GI50 with HCC 2998 was 34.6 µM (inactive); in the assay with PC-3 it was 37.3 µM (inactive); in the assay with OVCAR-5 it was > 87.1 µM (inactive); in the assay with EKVX, 64.6 µM (inactive); with SNB-75, > 34.4 µM (inactive); with NCI-H460 it was 34.5 µM (inactive). Besides, the GI50 in the assay with SNB-19 was 48.3 µM (inactive).

Consider `COC(=O)CCc1ccc2c(c1)[C@H](C(=O)OC)[C@@H](c1ccc(O)cc1)O2`, for which the GI50 in the assay on OVCAR-3 is > 100 µM (inactive); with 786-0, > 10 µM (inactive); in the assay on MDA-MB-435, > 100 µM (inactive); in the assay on SF-539, 25.6 µM (inactive); in the assay with UO-31, > 100 µM (inactive); in the assay on M14 it was > 100 µM (inactive). The GI50 in the assay on OVCAR-4 is > 100 µM (inactive); in the assay on RPMI-8226, 75.5 µM (inactive); in the assay with HOP-62 it was > 100 µM (inactive); with IGROV-1, > 100 µM (inactive); in the assay with NCI/ADR-RES, > 100 µM (inactive); with SF-268, > 100 µM (inactive). For the same molecule, the GI50 with HCC 2998 is > 100 µM (inactive); in the assay on MDA-MB-231, > 100 µM (inactive); in the assay with PC-3, > 100 µM (inactive); with OVCAR-5, > 100 µM (inactive); with EKVX it was > 100 µM (inactive); in the assay on NCI-H460, 58.9 µM (inactive). For the same molecule, in the assay on SNB-19, the GI50 was > 100 µM (inactive).

As for `COC(=O)Nc1nc2ccc(S(=O)(=O)SC)cc2[nH]1`, the GI50 is 4.86 µM (inactive) in the assay on OVCAR-3; 5.09 µM (inactive) with 786-0; 2.69 µM (inactive) in the assay on MDA-MB-435; 4 µM (inactive) in the assay with SF-539; 3.4 µM (inactive) with M14; 11.9 µM (inactive) with OVCAR-4. The GI50 with RPMI-8226 is 3.84 µM (inactive); in the assay on HOP-62, 21.1 µM (inactive); in the assay with IGROV-1 it was 3.37 µM (inactive); in the assay with NCI/ADR-RES it was 3.61 µM (inactive); in the assay on SF-268 it was 16.5 µM (inactive); in the assay with HCC 2998 it was 10.4 µM (inactive). Also, the GI50 in the assay with MDA-MB-231 is 11.6 µM (inactive); with PC-3, 4.42 µM (inactive); in the assay with OVCAR-5, 11.6 µM (inactive); with EKVX it was 8.69 µM (inactive); with NCI-H460, 5.2 µM (inactive); with SNB-19, 7.55 µM (inactive).

`C1=CN2C[n+]3ccc4ccccc4c3N=C2c2ccccc21`: the 50% growth inhibitory concentration (GI50) in the assay with OVCAR-3 is 0.652 µM (active); in the assay on 786-0 it was 2.88 µM (inactive); with MDA-MB-435 it was 2.19 µM (inactive); with SF-539, 3.25 µM (inactive); in the assay on UO-31, 21 µM (inactive); with M14, 2.72 µM (inactive). For the same molecule, the GI50 in the assay on RPMI-8226 is 2.32 µM (inactive); in the assay on HOP-62, 7.57 µM (inactive); in the assay on IGROV-1 it was 3.74 µM (inactive); with NCI/ADR-RES, 48.6 µM (inactive); in the assay with SF-268, 2.54 µM (inactive); with MDA-MB-231, 6.08 µM (inactive). Moreover, the GI50 in the assay on PC-3 is 8.2 µM (inactive); in the assay with OVCAR-5 it was 16.1 µM (inactive); in the assay with EKVX, 7.62 µM (inactive); in the assay with NCI-H460, 3.54 µM (inactive); in the assay with SNB-19 it was 2.11 µM (inactive).

With `OCCN(CCO)c1ncnc2[nH]cnc12`, the GI50 was > 100 µM (inactive) in the assay on OVCAR-3; > 100 µM (inactive) in the assay on 786-0; > 100 µM (inactive) in the assay on MDA-MB-435; 63.4 µM (inactive) in the assay on UO-31; > 100 µM (inactive) in the assay on M14; > 100 µM (inactive) in the assay with OVCAR-4. Also, the GI50 in the assay with RPMI-8226, with HOP-62, in the assay on IGROV-1, in the assay with NCI/ADR-RES, in the assay with SF-268 and in the assay on HCC 2998 was > 100 µM (inactive) in each case. Further, the GI50 in the assay on MDA-MB-231 is 80.9 µM (inactive); in the assay on PC-3, > 100 µM (inactive); in the assay on OVCAR-5, 60.8 µM (inactive); with EKVX it was 68.5 µM (inactive); in the assay with NCI-H460, > 100 µM (inactive); with SNB-19, > 100 µM (inactive).

Take `COC(=O)[C@@H](Nc1ccccc1)[C@@]1(C(=O)OC)SC12c1ccccc1-c1ccccc12`: the GI50 in the assay with OVCAR-3 was 43.2 µM (inactive); with 786-0 it was 29.4 µM (inactive); with MDA-MB-435 it was 54.8 µM (inactive); in the assay with SF-539 it was 45.8 µM (inactive); in the assay with UO-31, 42.3 µM (inactive); in the assay on M14 it was > 100 µM (inactive). Also, the GI50 is 69.2 µM (inactive) with OVCAR-4; 25.8 µM (inactive) with RPMI-8226; > 100 µM (inactive) in the assay with HOP-62; > 100 µM (inactive) in the assay with IGROV-1; > 100 µM (inactive) in the assay on NCI/ADR-RES; > 100 µM (inactive) with SF-268. Moreover, the GI50 in the assay with HCC 2998 is > 100 µM (inactive); with MDA-MB-231, > 100 µM (inactive); in the assay on PC-3, 35 µM (inactive); in the assay on OVCAR-5, > 100 µM (inactive); in the assay on EKVX it was 61.8 µM (inactive); with SNB-19 it was > 100 µM (inactive).

As for `NC(=O)Cc1nc2c(N)ncnc2n1C1OC(CO)C(O)C1O` (centres undefined), the GI50 in the assay on OVCAR-3, with 786-0, in the assay on MDA-MB-435, with SF-539, in the assay on UO-31 and with M14 was > 100 µM (inactive) throughout. Moreover, the GI50 with OVCAR-4, in the assay with RPMI-8226, with HOP-62, with IGROV-1, in the assay with NCI/ADR-RES and in the assay on SF-268 was > 100 µM (inactive) throughout. The GI50 with HCC 2998, in the assay with MDA-MB-231, with PC-3, in the assay on EKVX, in the assay with NCI-H460 and in the assay on SNB-19 was > 100 µM (inactive) throughout.

As for `CC1(C)Oc2ccc3c(=O)cc(-c4ccc(F)cc4)oc3c2C1C(=O)O` (centres undefined), the GI50 in the assay with OVCAR-3, in the assay on 786-0, in the assay on MDA-MB-435, with SF-539, in the assay with M14 and in the assay on HOP-62 was > 100 µM (inactive) each time. Further, the GI50 in the assay on IGROV-1, in the assay on NCI/ADR-RES, with SF-268, in the assay with HCC 2998, in the assay with MDA-MB-231 and in the assay on PC-3 was > 100 µM (inactive) in each case. Besides, the GI50 in the assay on OVCAR-5 and in the assay with EKVX was > 100 µM (inactive) in each case.

Usually GI50 stands for the concentration that inhibits growth by half.
